Results on 3 compounds are retold here after US20060005464A1, “Alkyl ethanolamine and biocide combination for hydrocarbon based fuels” (priority 2004, published 2006).

Holding throughout (type): cell-based
The test system of experiment [1] is mixed enteric bacteria (klebsiella pneumoniae, Proteus vulgarus, Citrobacter sp., Escherichia coli). Nature of the experiment: Maximum growth slope of mixed enteric bacteria culture with GROTAN plus alkanolamine. The conditions noted are these: pH 9.0, TSB with emulsified oil, 24 hour. The procedure: A culture of mixed enteric bacteria (klebsiella pneumoniae, Proteus vulgarus, Citrobacter sp., Escherichia coli) at pH=9.0 in TSB (trypticase soy broth) media mixed with emulsified oil was prepared. A biocide, GROTAN® {78.5% 1,3,5-(2-hydroxyethyl)-s-triazine solution in water} as sold by Troy Chemicals (Florham Park, N.J.) was added at varying concentrations to the culture in combination with 2500 ppm of one of the four alkanolamines, N-butylaminoethanol (BAE), diethanolamine (DEA), diglycolamine (DGA) or 2-amino-2-methyl-1-propanol (AMP). Optical density measurements were taken every 15 minutes over a 24 hour time period (total of 96 data points). The maximum growth slope was calculated by taking the 10 contiguous data points that result in the highest growth slope (units of OD per time) over the 24 hour period. Those 10 data points were subjected to a least squares linear fit to calculate the maximum growth slope.

The subject of experiment [2] is Pseudomonas Aeruginosa (ATCC27853). Description: Microtiter plate growth of Pseudomonas Aeruginosa with amines and GROTAN. The conditions noted are these: for growth of Pseudomonas Aeruginosa (Table 1 entry): pH 8.5, 24 hours.
For experiment [3], the system named is Aureobasidium pullulans (ATCC 12536). Nature of the experiment: End-point optical density of Aureobasidium pullulans with MIT/CMIT plus alkanolamine. The note with it: SAB media pH 8.5. As to the method: The impact of N-alkylalkanolamines on the control of the bacterial species Aureobasidium pullulans (ATCC 12536), a bacteria common in water-oil systems, was evaluated by measuring optical absorbance of samples treated with various concentrations of N-alkyl alkanolamines. […] SAB media at pH 8.5 (Tris buffer) was employed. Table 8 summarizes measurement of end-point optical density after 24 hours and 48 hours: […]

Experiment [4] relates to Mycobacterium smegmatis (ATCC # 19420). Description: End-point optical density and MIC, Mycobacterium smegmatis (660 nm, 48 h). The conditions noted are these: for MIC (estimate of the concentration range in which the amine starts to inhibit growth): 48 hours; for end-point optical density: 660 nm, after 48 hours. The procedure:
(§1) The impact of N-alkylalkanolamines on the control of the bacterial species Mycobacterium smegmatis (ATCC # 19420), a bacteria common in water-oil systems, was evaluated by measuring optical absorbance of samples treated with various alkyl ethanolaminesis DCHA=Dicyclohexylamine, OAE=Octylaminoethanol, ODEA=Octyldiethanolamine. Bacterial concentration was monitored indirectly via optical absorbance at 660 nm. The values reported are end-point optical densities in milliOD units after 48 hours. The media consisted of a standardized solution of clear nutrient broth (Middlebrook 7H10 with OADC supplement), amine, buffer (Tris) and water. The pH was adjusted initially to 8.5 with Tris buffer. The first column in the Table gives the amine concentration in ppm. The final two columns give data for cells that also contained 2 grams per liter of boric acid. In all cases, the values are averages of at least three replicates. The final row of the Table gives an estimate of the concentration range in which the amine in question starts to inhibit the growth of this bacterial species.

Experiment [5] relates to Mycobacterium marinum (ATCC # 19420). Description: End-point optical density and MIC, Mycobacterium marinum (660 nm, 72 h). The conditions noted are these: pH 8.5; for end-point optical density: 660 nm, after 72 hours. The procedure:
as §1
The impact of the N-alkylalkanolamines of Example 6 on the control of the bacterial species Mycobacterium marinum (ATCC # 19420), bacteria common in water-oil systems, was evaluated as described above in Example 6. Bacterial concentration in the experimental media was monitored indirectly via optical absorbance at 660 nm. The values reported are end-point optical densities in milliOD units after 72 hours. The media consisted of a standardized solution of clear nutrient broth (Middlebrook 7H10 with OADC supplement), amine, buffer (Tris) and water. The pH was adjusted initially to 8.5 with Tris buffer. The first column in the Table gives the amine concentration in ppm. In all cases, the values are averages of at least three replicates. The final row of the Table gives an estimate of the concentration range in which the amine in question starts to inhibit the growth of this bacterial species.

Experiment [6] relates to Mycobacterium smegmatis (ATCC # 19420). Description: End-point optical density of Mycobacterium smegmatis with N-alkyl alkanolamines (590 nm, 72 h). The conditions noted are these: for end-point optical density: 590 nm, after 72 hours, pH 8.5, tetrazolium dye.
Experiment [7] relates to Pseudomonas aeruginosa (ATCC 10145). Nature of the experiment: Maximum growth slope of Pseudomonas aeruginosa with Proxel DB20 (BIT) plus alkanolamine. The note with it: pH 8.5, TSB, 24 hour.
Procedure: A culture of Pseudomonas aeruginosa (ATCC 10145) at pH=8.5 in TSB (trypticase soy broth) media was prepared. The biocide Proxel DB20 (20% suspension of benzoisothiazolone (BIT) in water), as sold by Avecia, was added at varying concentrations in combination with 1000 ppm or 2000 ppm of the alkanolamines N-butylaminoethanol (BAE), 2-amino-2-methyl-1-propanol (AMP), dibutylaminoethanol (DBAE) or n-octylaminoethanol (OAE). Optical density measurements were taken every 15 minutes over a 24 hour time period (total of 96 data points). The maximum growth slope was calculated by taking the 10 contiguous data points that result in the highest growth slope (units of OD per time) over a 24 hour period. Those 10 data points were subjected to a least squares linear fit to calculate the maximum growth slope.
Setting [8] is: 2500 ppm amine plus GROTAN 650 ppm.
The mark [9] stands for this setting: 2500 ppm amine plus GROTAN 1650 ppm.

Turning to `OCCNCCO` [DEA, diethanolamine], the maximum growth slope in experiment [1] (setting [8]) is recorded as 0.466 OD per time; in experiment [1] (setting [9]) it was 0.117 OD per time; in experiment [1] (2500 ppm amine, GROTAN 0 ppm), 0.723 OD per time.

As for `NCCOCCO` [DGA, diglycolamine, reference compound], the maximum growth slope in experiment [1] (setting [8]) is on record as 0.1955 OD per time; in experiment [1] (setting [9]), 0.0725 OD per time; in experiment [1] (2500 ppm amine, GROTAN 0 ppm) it was 0.796 OD per time. Moreover, the “growth of Pseudomonas Aeruginosa (Table 1 entry)” value came out at 0.71 in experiment [2] (amine 2000 ppm plus GROTAN 100 ppm); 0.70 in experiment [2] (amine 2000 ppm plus GROTAN 250 ppm); 0.76 in experiment [2] (amine 2000 ppm plus GROTAN 500 ppm); 0.32 in experiment [2] (amine 2000 ppm plus GROTAN 1000 ppm); 0.34 in experiment [2] (amine 2000 ppm plus GROTAN 2000 ppm); 0.76 in experiment [2] (amine 2000 ppm, GROTAN 0 ppm). Also, the “growth of Pseudomonas Aeruginosa (Table 1 entry)” value in experiment [2] (amine 4000 ppm plus GROTAN 100 ppm) came out at 0.70; in experiment [2] (amine 4000 ppm plus GROTAN 250 ppm) it was 0.69; in experiment [2] (amine 4000 ppm plus GROTAN 500 ppm), 0.36; in experiment [2] (amine 4000 ppm plus GROTAN 1000 ppm) it was 0.29; in experiment [2] (amine 4000 ppm plus GROTAN 2000 ppm), 0.36; in experiment [2] (amine 4000 ppm, GROTAN 0 ppm), 0.68. Further, the “enhancement in the biocidal effect of GROTAN” value in experiment [2] (conclusion from Table 1) is recorded as “not seen”.

For the compound `CCCCCCCCNCCO` [OAE, n-octylaminoethanol], the end-point optical density came out at 0.1 in experiment [3] (amine 200 ppm plus 50 ppm MIT/CMIT, 24 hours); 0.1 in experiment [3] (amine 200 ppm plus 50 ppm MIT/CMIT, 48 hours); 0 in experiment [3] (amine 500 ppm plus 50 ppm MIT/CMIT, 24 hours); 0 in experiment [3] (amine 500 ppm plus 50 ppm MIT/CMIT, 48 hours); 0.100 milliOD in experiment [4] (amine 500 ppm plus 2 grams per liter of boric acid); 0.184 milliOD in experiment [4] (amine 500 ppm, pH 8.5). For the same compound, the end-point optical density in experiment [4] (amine 1000 ppm plus 2 grams per liter of boric acid) came to 0.121 milliOD; in experiment [4] (amine 1000 ppm, pH 8.5), 0.149 milliOD; in experiment [4] (amine 1500 ppm, pH 8.5), 0.213 milliOD; in experiment [4] (amine 2000 ppm plus 2 grams per liter of boric acid), 0.015 milliOD; in experiment [4] (amine 2000 ppm, pH 8.5), 0.226 milliOD; in experiment [4] (amine 4000 ppm, pH 8.5), 0.205 milliOD. The end-point optical density is given as 0.4 milliOD in experiment [5] (amine 400 ppm); 0.4 milliOD in experiment [5] (amine 800 ppm); 0.4 milliOD in experiment [5] (amine 1200 ppm); 0 milliOD in experiment [5] (amine 2000 ppm); 0 milliOD in experiment [5] (amine 4000 ppm); 0 milliOD in experiment [6] (amine 470 ppm). In addition, the end-point optical density in experiment [6] (amine 940 ppm), in experiment [6] (amine 1880 ppm), in experiment [6] (amine 3750 ppm) and in experiment [6] (amine 7500 ppm) was 0 milliOD in each case. For the same compound, the “MIC (estimate of the concentration range in which the amine starts to inhibit growth)” value in experiment [4] (pH 8.5, no boric acid) is under 500 ppm; in experiment [4] (with 2 grams per liter of boric acid), under 500 ppm; in experiment [5] (72 hours) it was 1200-2000 ppm. For the same compound, the “effectiveness against Mycobacteria” value in experiment [6] (compared with AMP, conclusion from Table 5) is “markedly more effective than AMP”. The maximum growth slope in experiment [7] (amine 1000 ppm plus BIT 150 ppm) was 0.000 OD per time; in experiment [7] (amine 1000 ppm plus BIT 250 ppm) it was 0.000 OD per time; in experiment [7] (amine 1000 ppm plus BIT 500 ppm) it was 0.000 OD per time; in experiment [7] (amine 1000 ppm, BIT 0 ppm), 0.000 OD per time; in experiment [7] (amine 2000 ppm plus BIT 150 ppm) it was 0.000 OD per time; in experiment [7] (amine 2000 ppm plus BIT 250 ppm) it was 0.000 OD per time. The maximum growth slope in experiment [7] (amine 2000 ppm plus BIT 500 ppm) was found to be 0.000 OD per time; in experiment [7] (amine 2000 ppm, BIT 0 ppm) it was 0.000 OD per time.
